The values that follow come from PubChem BioAssay AID493102 (Broad Institute, 2011).

This assay concerns SK-MEL-5 TRPM1-promoter luciferase reporter, 24 h. The assay can be described thus: TRPM1 promoter luciferase signal decrease, dose response, MITF inhibitor project, cell-based, SK-MEL-5, cherry-picked, set 4 (AID 493102).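 Further: actives lower the luciferase signal so the potency reflects inhibition of reporter expression.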
In the case of `COc1cccc(C(=O)Oc2c(CN3CCOCC3)cc(Cl)c3cccnc23)c1`, the half-maximal activity concentration (AC50) (usually the midpoint of the concentration-response curve, whichever way the signal moves) was 9.89 µM.
Consider `CCc1ccc(-c2cc(C(=O)Nn3cnnc3)c3ccccc3n2)cc1`, for which the half-maximal activity concentration (AC50) was 12.5 µM.
Next, `Cc1ccc2nc3cc([N+](=O)[O-])cc([N+](=O)[O-])c3cc2c1`: 8.46 µM; `O=C(COC(=O)CCN1C(=O)/C(=C\C=C\c2ccccc2)SC1=S)Nc1cc(F)ccc1F`: 7.49 µM; `Cc1cccc(NC(=O)CNC(=O)Cn2ncc(Cl)c(Cl)c2=O)c1C`: 13.4 µM.
Next, `O=C1CN(C(=O)Cn2ncc(Cl)c(Cl)c2=O)c2ccccc2N1`: 8.67 µM.
Next, `CCN1CCCC1CNC(=O)c1ccc2c(c1)NC(=O)/C(=C\c1ccc(C)cc1)S2` (stereo not drawn): 18.9 µM; `O=C(O)CSCC(=O)Nc1ccc(C2CCCCC2)cc1`: 2.12 µM.
`CCC(=O)N1CCN(c2ccc(NC(=O)c3ccc([N+](=O)[O-])o3)cc2)CC1`: the AC50 was 8.69 µM.
The result for `O=[N+]([O-])c1cc(CN2CCN(c3ccccc3)CC2)c(O)c2ncccc12` reads 8.3 µM; that for `CC(OC(=O)c1ccc([N+](=O)[O-])s1)C(=O)NC1CCCCC1C` (stereo not drawn), 12 µM; that for `COc1ccc(C(C(=O)NC2CCCCC2)N(C(=O)CCl)c2ccc(OC)cc2)cc1` (stereo not drawn), 9.27 µM.
Next, `Cc1cccc(NC(=O)c2ccc([N+](=O)[O-])o2)c1C`: 14.8 µM.
The result for `N/C(=N\OC(=O)c1ccccc1Cl)c1ccccn1` reads 8.87 µM; that for `Cc1ccc(-c2cn3nc(C)c(C)nc3n2)cc1`, 5.3 µM.
Take `C/C(=N/NC(=O)C(O)(c1ccccc1)c1ccccc1)c1ccc([N+](=O)[O-])o1`: the AC50 was 9.84 µM.
The result for `Cc1nc(Sc2nnnn2C)c2c3c(sc2n1)CCC3` reads 4.98 µM; that for `COc1ccc(Oc2cc(NC(=O)c3nn(C)cc3[N+](=O)[O-])cc([N+](=O)[O-])c2)cc1`, 8.94 µM; that for `c1ccc2cc3c(NCCN4CCOCC4)ccnc3cc2c1`, 2.91 µM.
Turning to `COc1ccc(C(CCNC(C)c2ccccc2)c2ccc(F)cc2)cc1` (stereo not drawn), the concentration at half-maximal activity (AC50) is 16.6 µM.
Next, `O=C(NCC1CCCCC1)C1(CC2CC(c3cccc(Br)c3)=NO2)CCNCC1` (stereo not drawn): 18.1 µM; `CCOc1ccc(OCc2ccc(C(=O)N/N=C(\C)c3ccccn3)cc2)cc1`: 3.64 µM; `O=[N+]([O-])c1cc(Cl)cc(/C=N\Nc2ccccn2)c1O`: 4.49 µM.
Next, `Cc1ccc(NC(=O)c2cc3ccccc3oc2=O)cc1S(=O)(=O)N(C)C`: 0.03 µM.
The result for `Cc1ccc(C)c(C(=O)Cn2ncc(Cl)c(Cl)c2=O)c1` reads 14.5 µM; that for `Cn1c(SCC(=O)N/N=C/c2ccc([N+](=O)[O-])s2)nnc1-c1ccccc1`, 4.28 µM; that for `O=C1NC(=O)N(c2ccccc2)C(=O)/C1=C/C=C/c1ccco1`, 8.29 µM.
For the compound `O=C(CSc1ccc(Cl)cc1)NC1CCCC1`, the AC50 was 14.2 µM.
Next, `CCCCCn1c(=O)c(C(=O)Nc2cnccn2)c(O)c2ccccc21`: 5.93 µM; `Cc1ccc2nc(NC(=O)CCCC(=O)O)sc2c1`: 12.1 µM; `Cc1ccccc1OCc1n(CC(=O)OC2CC(C)CCC2C(C)C)c2ccccc2[n+]1C` (stereo not drawn): 7.52 µM.
The result for `C#CC(=O)N(c1ccc(OC)c(OC)c1)C(C(=O)NC1CCCC1)c1cccs1` (stereo not drawn) reads 3.31 µM; that for `Nc1c(N(CCC2=CCCCC2)C(=O)COc2ccc([N+](=O)[O-])cc2)c(=O)[nH]c(=O)n1Cc1ccccc1`, 14.2 µM.
For the compound `Cc1nc(C)c(C(=O)N/N=C/c2cc(Br)ccc2O)s1`, the AC50 is 3.66 µM.
On to `CCC(=O)NC(c1ccccc1OC)c1ccc2cccnc2c1O` (stereo not drawn), for which the concentration at half-maximal activity (AC50) was 6.7 µM.
On to `Cc1ccc(NC(=O)c2ncn(CCCN[C@H](C)c3cccc4ccccc34)n2)cc1C`, for which the AC50 is 22.7 µM.
As for `CN(C)CCNc1ccc2nnn3c4ccc(O)cc4c(=O)c1c23`, the AC50 is 4.73 µM.
Turning to `CC(C)c1oc(=O)cc2c1[C@@H](O)[C@H]1OC(=O)[C@@]3(C)C[C@@H](O)[C@@H](O)[C@@]2(C)C13` (stereo partly drawn), the AC50 was 1.63 µM.
Next, `O=C(COC(=O)c1ccccc1C(=O)c1ccc(Cl)c([N+](=O)[O-])c1)NC1CC1`: 8.92 µM; `CCOC(=O)c1ccc2c(c1)n(CC)c(/C=C/N(C)c1ccccc1)[n+]2CC`: 3.24 µM; `CC(C)N1C/C(=C/c2cccnc2)C(=O)/C(=C/c2cccnc2)C1`: 14.2 µM.
As for `CCOc1ccc(-n2c(-c3ccc(Br)cc3)c[n+]3c2CCCCC3)cc1`, the AC50 was 3.87 µM.
For the compound `COc1cccc(-c2csc3ncnc(Sc4nnnn4C)c23)c1`, the AC50 was 25 µM.
Take `CCOC(=O)CCc1ccc(NC(=O)/C=C/c2ccc([N+](=O)[O-])o2)cc1`: the AC50 was 6.83 µM.
The result for `Cn1cc(C(=O)N/N=C/c2c(O)ccc3ccccc23)ccc1=O` reads 2.55 µM; that for `CCN(CC)CCNC(=O)c1ccc(NC(=O)c2cccc(S(=O)(=O)N3c4ccccc4CC3C)c2)cc1` (stereo not drawn), 10.5 µM.
The result for `CC(C)C(CCNC1CCN(C)CC1)c1ccc(Cl)cc1` (stereo not drawn) reads 11.9 µM.
The result for `CN(C)S(=O)(=O)c1ccc(-c2csc(N/N=C/c3ccc(O)cc3)n2)cc1` reads 4.6 µM; that for `CCOC(=O)CSC1=NC(=O)/C(=C\c2ccc(OC(C)=O)cc2)S1`, 5.13 µM; that for `Cc1ccc(-n2cc(CNCCCn3ccnc3C)c(-c3ccc(F)cc3)n2)cc1`, 7.58 µM.
`CC1CCC/C=C/C(=O)c2c(O)cc(O)cc2CC(=O)O1` (stereo not drawn): the AC50 is 5.79 µM.
The result for `CCCN(CC(=O)Nc1ccccc1C)C(=O)CCl` reads 4.04 µM.
As to `Nc1nc2n[nH]nc2c(=O)[nH]1`, the AC50 is 0.875 µM.
With `CCCN(CCC)C1=CC(=[N+]2CCCC2)CC(C)(C)C1`, the AC50 was 2.02 µM.
For the compound `Clc1cccc(-c2nc(-c3ccccn3)no2)c1`, the half-maximal activity concentration (AC50) is 5.92 µM.
The result for `CCOc1ccc2nc(C)cc(Nc3cccc([N+](=O)[O-])c3)c2c1` reads 17.8 µM; that for `O=C(O)c1cccc(NC(=S)N/N=C/c2ccccn2)c1`, 8.63 µM.
The result for `COc1cccc(/C=N/Nc2ccc(C(=O)O)cc2)c1O` reads 0.333 µM.
Next, `Cc1ccc(C2CC(C(F)(F)F)n3nc(C(=O)NCc4c(C)nn(C)c4C)c(Cl)c3N2)cc1` (stereo not drawn): 8.89 µM; `COc1ccccc1NC(=O)c1nc(S(=O)(=O)Cc2ccccc2)ncc1Cl`: 8.91 µM.
For `CC(=O)c1c(C)oc2c1C(=O)c1ccccc1C2=O`, the concentration at half-maximal activity (AC50) was 6.68 µM.
In the case of `Cc1onc(-c2ccccc2)c1C(=O)N/N=C/c1ccc([N+](=O)[O-])s1`, the half-maximal activity concentration (AC50) is 5.35 µM.
`COc1ccc2cc3cc(C(=O)NCCc4ccc(OC)c(OC)c4)oc3nc2c1`: the half-maximal activity concentration (AC50) was 16.2 µM.
On to `CC(=O)Nc1ccc(NC(=O)c2nc(S(=O)(=O)Cc3ccccc3)ncc2Cl)cc1`, for which the AC50 is 12.8 µM.
Next, `CC(=O)SC(C[N+](=O)[O-])c1cn(C(C)=O)c2ccccc12` (stereo not drawn): 3.54 µM; `O=c1c2ccccc2nc(/C=C/c2ccc([N+](=O)[O-])o2)n1-c1ccc(O)cc1`: 4.45 µM.
Next, `CCOCCCNC(=O)/C(C#N)=C/c1ccc(Cl)c([N+](=O)[O-])c1`: 7.38 µM; `CN(c1ccc2nc3ccccc3c(=O)n2n1)C1CCCCC1`: 1.29 µM.
Turning to `COc1cccc2sc(N(CCCN(C)C)C(=O)C(c3ccccc3)c3ccccc3)nc12`, the AC50 is 15.1 µM.
The result for `COc1cc(SC)ccc1C(=O)Nc1nc(C)cs1` reads 4.81 µM; that for `N#CC1=C(c2ccccc2)/C(=C/c2ccccc2)OC1=O`, 4.25 µM; that for `COC(=O)c1ccc(/C=C(\C#N)C(=O)NC(C)c2ccccc2)cc1` (stereo not drawn), 10.7 µM.
The result for `COc1cc(SC)ccc1C(=O)Nc1ccc(Br)cn1` reads 7.36 µM; that for `COc1ccc(C(=O)C(CN2CCCC2)c2ccccc2)cc1` (stereo not drawn), 9.13 µM; that for `N#CC(C#N)=C1C=CC=CN1/C(=C\c1ccco1)C(=O)c1ccc(Br)cc1`, 5.59 µM.
Next, `C=CCN1C(=O)/C(=C/c2cc(C)n(-c3cccnc3)c2C)C(=O)NC1=S`: 16.8 µM; `CCCCN(C)CC(O)Cn1cc(/C=C/C(=O)c2cccs2)c2ccccc21` (stereo not drawn): 14.3 µM; `C#CC(=O)N(c1ccc(OC)cc1OC)C(C(=O)NC1CCCC1)c1cccs1` (stereo not drawn): 4.73 µM.
In the case of `O=C1C(Cl)=C(N2CCN(c3ccccc3[N+](=O)[O-])CC2)C(=O)c2ccccc21`, the AC50 was 3.59 µM.
Regarding `COc1cc(/C=C/C(=O)N2CCC=CC2=O)cc(OC)c1OC`, the AC50 was 7.4 µM.
Regarding `CCOC(=O)N1CCN(C(=O)c2ccc(Cn3c(=S)[nH]c4ccc(Br)cc4c3=O)cc2)CC1`, the AC50 was 3.52 µM.
Next, `Cc1cc(C)cc(N2C(=O)NC(=O)/C(=C\c3cccn3-c3ccccc3)C2=O)c1`: 13.8 µM.
The result for `CCc1ccc(NC2=CC(=O)C(=O)c3ccccc32)cc1` reads 3.59 µM; that for `CCOc1ccc(-c2cc(C)[n+](CCO)c(-c3ccc(OCC)cc3)c2)cc1`, 11.1 µM.
Next, `CCOc1ccc(-n2c(C)cc(C(=O)CCl)c2C)cc1`: 4.59 µM.
Turning to `Cc1ccc(-c2c[n+](Cc3cccc(Cl)c3)c3n2CCC3)cc1`, the concentration at half-maximal activity (AC50) was 12.2 µM.
Next, `CC(Oc1cccc(Br)c1)C(=O)NNC(=O)c1ccccn1` (stereo not drawn): 7.18 µM; `N=c1n(CC(=O)c2ccc([N+](=O)[O-])cc2)c2ccccc2n1Cc1ccccc1`: 4.83 µM.
As for `CN(C)c1ccc(NC(=S)c2ccccn2)cc1`, the concentration at half-maximal activity (AC50) is 2.84 µM.
Next, `O=C(N/N=C/c1ccccn1)c1cc([N+](=O)[O-])cc([N+](=O)[O-])c1`: 6.53 µM; `CC(=O)Nc1ccc(Nc2c3ccccc3nc3ccccc23)cc1`: 4.9 µM; `COc1ccc2[nH]cc(C(=O)CCl)c2c1`: 5.65 µM.
Take `COc1ccc(S(=O)(=O)Nc2ccc(O)c3ccccc23)cc1`: the concentration at half-maximal activity (AC50) is 9.07 µM.
Consider `O=C1NC(=O)N(CCc2ccc(F)cc2)C(=O)/C1=C\C=C\c1ccccc1`, for which the AC50 is 8.26 µM.
Next, `O=C1NC(=O)C(=Cc2ccc(-c3cc(Cl)ccc3[N+](=O)[O-])o2)C(=O)N1`: 17.2 µM.
Next, `CCOC(=O)N1CCC(NC(=O)C2CCCN(Cc3nc(-c4cccc(C)c4)oc3C)C2)CC1` (stereo not drawn): 34.9 µM; `CCN1CCN(c2ccc(S(=O)(=O)N3CCCCC3)cc2NC(=O)/C=C/c2ccc([N+](=O)[O-])cc2)CC1`: 7.51 µM; `CCNC1=C(Cl)C(=O)c2ccccc2C1=O`: 3.84 µM.
